In publication PMC6450673, “Targeted degradation of aberrant tau in frontotemporal dementia patient-derived neuronal cell models” (eLife, 2019):
Where “and” joins values, the source holds several entries; their conditions need not be identical. Equal entries are not always repeated.

Key:
[1] = target: T1, total tau (TAU5) in non-mutant control iPSC-derived neurons (Homo sapiens, UniProt P10636); assay: Human total tau ELISA in control neurons 1-3; type: cell-based; details: for degradation of tau: all three control neurons, ELISA, concentrations up to 1 μM; for TAU5 (total tau by ELISA, relative to vehicle-treated): replicate values
T1 construct: modeling pathogenic tau species without the need for overexpression of heterologous genes; endogenous in cells; host or cells: 8330-8-RC1, MGH2069-RC1, CTR2-L17-RC2 human iPSC-derived neurons
T1 sequence (P10636 1-441 isoform P10636-8, stated change not applied): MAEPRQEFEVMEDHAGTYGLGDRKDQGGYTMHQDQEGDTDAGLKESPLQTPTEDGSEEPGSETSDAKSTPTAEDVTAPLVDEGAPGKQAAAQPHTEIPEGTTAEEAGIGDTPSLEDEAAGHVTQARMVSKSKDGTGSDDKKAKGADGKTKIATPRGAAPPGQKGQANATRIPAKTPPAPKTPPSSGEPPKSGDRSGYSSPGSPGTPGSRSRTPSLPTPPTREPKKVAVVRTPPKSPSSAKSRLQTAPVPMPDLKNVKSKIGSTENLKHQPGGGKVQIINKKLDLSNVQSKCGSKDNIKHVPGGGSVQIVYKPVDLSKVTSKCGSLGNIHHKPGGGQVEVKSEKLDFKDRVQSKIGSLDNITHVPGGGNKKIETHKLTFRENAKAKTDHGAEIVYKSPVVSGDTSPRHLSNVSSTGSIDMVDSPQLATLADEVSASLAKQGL
From the text: Cells from individuals carrying the tau risk variant A152T (c.1407G > A; NCBI RefSeq NM_001123066, rs143624519), the autosomal dominant mutation P301L (c.C1907T; NCBI NM_001123066, rs63751273), or age-matched non-mutant WT tau were employed in this study (Figure 2—source data 1). Dermal fibroblasts from the tau-P301L carrier and the healthy individual were generated from a skin biopsy from subjects within the MGH Frontotemporal Disorders Unit as part of the MGH Neurodegeneration Repository. Approval for human subjects’ work was obtained under a Partners/MGH-approved IRB Protocol (#2010P001611/MGH). Fibroblasts were reprogrammed into iPSCs, which were subsequently converted into cortical-enriched neural progenitor cells (NPCs) and differentiated into neuronal cells as previously described ([Almeida et al., 2012]; [Seo et al., 2017]; [Silva et al., 2016]; [Sheridan et al., 2011]) (Silva MC, Manuscript in preparation, 2019). Briefly, cells were cultured in 6-well (Fisher Scientific Corning, Pittsburgh, PA) or 96-well (Fisher Scientific Corning) plates coated with poly-ornithine (20 μg/mL in water, Sigma, St. Louis, MO) and laminin (5 μg/mL in PBS, Sigma) (POL-coated), in DMEM/F12-B27 media [70% DMEM (Gibco, Carlsbad, CA), 30% Ham’s-F12 (Fisher Scientific Corning), 2% B27 (Gibco), 1% penicillin-streptomycin (Gibco)]. Media was supplemented with EGF (20 ng/mL, Sigma), FGF (20 ng/mL, Stemgent, Cambridge, MA) and heparin (5 μg/mL, Sigma), to promote NPC proliferation and expansion. The growth factors were withdrawn to promote neural differentiation for 6 to 8 weeks, with half media change two times per week. Cell lines’ identity was authenticated by SANGER sequencing, karyotyping and ACGH analysis at different stages of culture maintenance from iPSC to NPC. All working cell lines tested negative for mycoplasma contamination.
Compound treatment in six-well plates was performed in 2 mL media volume by removing 1 mL of conditioned media from the culture and adding 1 mL of new media pre-mixed with the compound at the appropriate 2X concentration, followed by incubation at 37°C for the designated period of time. Compound treatment in 96-well plates was performed in 100 μL media volume by adding compound directly to each well, followed by incubation at 37°C. When testing the effect of drug pre-treatment, the first compound was added as described above for the period of time needed, and then QC-01–175 was added directly onto the media without media exchange.
Neuronal cells differentiated in six-well plate format for 6 weeks, were collected as described for western blotting, and lysed in ELISA-compatible buffer (Invitrogen FNN0011), supplemented with 1 mM PMSF, protease (Roche) and phosphatase (Sigma) inhibitors cocktails, for 30 min on ice with quick vortexing. Lysates were clarified by centrifugation at 13,000 rpm at 4°C for 10 min. The clear lysates were then transferred to new microfuge tubes and total protein concentration was quantified with the Pierce BCA Protein Assay Kit (ThermoFisher Scientific). ELISA assays were performed according to manufacturer instructions: Human Total Tau ELISA (Invitrogen Kit KHB0041/KHB0042) and P-Tau[pS396] Human ELISA Kit (Invitrogen Kit KHB7031). Data was plotted using GraphPad Prism version 8.0.

A152T neurons = assay: Neuronal stress and viability assay, rescue of Aβ(1-42) toxicity (Alamar Blue); type: cell-based, human; details: for neuronal viability, compound alone: A152T neurons, 24 hr treatment, 5 μM
[2] = test system: tau-degrader-CRL4^CRBN complex; assay: Co-immunoprecipitation, ternary complex formation in A152T neurons; type: cell-based, human; details: 4 hr; for CRBN detected after immunoprecipitation of tau (TAU5): 1 μM ± carfilzomib or bortezomib
Experimental: NPCs were plated and differentiated for 6 weeks, as described above, in six-well POL-coated plates. For each pull-down experiment, three wells of treated neurons were PBS-washed and combined into a single pellet. To stabilize and detect complex formation, all steps were performed on ice or at 4°C. […] The supernatant (Input) was transferred to a new tube and immediately aliquoted for the BCA assay to determine protein concentration. Antibodies, 10 μg of TAU5 and 5 μg of DDB1, were bound to Dynabeads (1.5 mg) per each condition to be tested (treatments). Immunoprecipitation of the target antigen (tau or DDB1) was performed by mixing protein lysate (200 μL sample corresponding to 300 μg of total protein) to each Dynabeads-antibody complex. All other steps followed the kit’s protocol. Elution was accomplished with 20 μL Elution Buffer and 10 μL of SDS-sample buffer with DTT (New England Biolabs), followed by removal of the magnetic beads. A volume of 10 μL of each IP sample was loaded onto SDS-PAGE for western blotting as described above.

Q: How did the degradation of tau ([1]; 24 hr) turn out when O=C(CCc1ccc2c(c1)[nH]c1ccncc12)NCCOCCOCCNc1cccc2c1C(=O)N(C1CCCNC1=O)C2=O (stereo not shown) [QC-03–075] was run?
A: The degradation of tau was “No significant degradation”.

Q: What about the “viability after Aβ(1-42) stressor, relative to vehicle-alone control” value (A152T neurons; A152T neurons 8 weeks, 5 μM pre-treatment 8 hr, then 10 μM Aβ(1-42) for 16 hr) of the same molecule?
A: Its value is “little effect on the toxicity of Aβ(1-42)”.

Q: What about the “neuronal viability, compound alone” value (A152T neurons) of the same molecule?
A: The value was “no change in neuronal viability”.

Q: What about the “tau detected after immunoprecipitation of DDB1” value ([2]; 1 μM ± carfilzomib) of the same molecule?
A: The value was “weak detection of total tau and P-tau”.

Q: What about the “CRBN detected after immunoprecipitation of tau (TAU5)” value [2] of the same molecule?
A: Its value is “low level of CRBN-tau interaction”.

Q: Which results are given for O=C(CCc1ccc2c(c1)[nH]c1ccncc12)NCCOCCOCCNc1cccc2c1C(=O)N(C1CCC(=O)NC1=O)C2=O (stereo not shown) [QC-01–175]?
A: TAU5 (total tau by ELISA, relative to vehicle-treated) ([1]; Control 1, 8330-8-RC1, 24h, 0.001 μM): 1.03 and 0.98 and 1.20 and 1.01; TAU5 (total tau by ELISA, relative to vehicle-treated) ([1]; Control 1, 8330-8-RC1, 24h, 0.01 μM): 0.91 and 0.87 and 0.97 and 1.00; TAU5 (total tau by ELISA, relative to vehicle-treated) ([1]; Control 1, 8330-8-RC1, 24h, 0.1 μM): 0.93 and 1.07 and 0.97 and 0.84; TAU5 (total tau by ELISA, relative to vehicle-treated) ([1]; Control 1, 8330-8-RC1, 24h, 1 μM): 0.99 and 0.94 and 0.95 and 0.71; TAU5 (total tau by ELISA, relative to vehicle-treated) ([1]; Control 1, 8330-8-RC1, 24h, 10 μM): 0.74 and 1.00 and 0.91 and 0.86; TAU5 (total tau by ELISA, relative to vehicle-treated) ([1]; Control 2, MGH2069-RC1, 24h, 0.001 μM): 0.91 and 0.93 and 1.00 and 1.15; TAU5 (total tau by ELISA, relative to vehicle-treated) ([1]; Control 2, MGH2069-RC1, 24h, 0.01 μM): 0.82 and 0.85 and 0.89 and 0.99; TAU5 (total tau by ELISA, relative to vehicle-treated) ([1]; Control 2, MGH2069-RC1, 24h, 0.1 μM): 0.76 and 0.78 and 0.92 and 0.71; TAU5 (total tau by ELISA, relative to vehicle-treated) ([1]; Control 2, MGH2069-RC1, 24h, 1 μM): 0.87 and 0.89 and 0.98 and 0.78; TAU5 (total tau by ELISA, relative to vehicle-treated) ([1]; Control 2, MGH2069-RC1, 24h, 10 μM): 0.71 and 0.83 and 0.74 and 0.76; TAU5 (total tau by ELISA, relative to vehicle-treated) ([1]; Control 3, CTR2-L17-RC2, 24h, 0.001 μM): 1.10 and 1.07 and 0.99 and 1.31; TAU5 (total tau by ELISA, relative to vehicle-treated) ([1]; Control 3, CTR2-L17-RC2, 24h, 0.01 μM): 0.96 and 1.12 and 1.00 and 0.90; TAU5 (total tau by ELISA, relative to vehicle-treated) ([1]; Control 3, CTR2-L17-RC2, 24h, 0.1 μM): 1.08 and 0.96 and 0.93 and 1.00; TAU5 (total tau by ELISA, relative to vehicle-treated) ([1]; Control 3, CTR2-L17-RC2, 24h, 1 μM): 0.91 and 0.81 and 0.71 and 0.95; TAU5 (total tau by ELISA, relative to vehicle-treated) ([1]; Control 3, CTR2-L17-RC2, 24h, 10 μM): 0.93 and 0.83 and 1.17 and 0.95; degradation of tau ([1]; 24 hr): No significant degradation; degradation of total tau ([1]; control line 1, 10 μM, 24 hr): ~ 20%; degradation of total tau ([1]; control line 2, 10 μM, 24 hr): ~ 20%; degradation of total tau ([1]; control line 3, 10 μM, 24 hr): no effect; dose dependence of effect on tau, ELISA ([1]; control neurons (8330–8-RC1, MGH2069-RC1, CTR2-L17-RC2), 24 hr): did not show a dose-dependent effect; % Viability (Relative to Vehicle) (A152T neurons; 5μM compound alone, replicates I-VI, 5 µM): 78.5% and 107.2% and 115.8% and 105.0% and 96.7% and 93.6%; neuronal viability, compound alone (A152T neurons): no change in neuronal viability; viability at 5 µM (A152T neurons; Homo sapiens, Neuron, read-out: viability after Aβ(1-42) stressor, relative to vehicle-alone control, A152T neurons 8 weeks, 5 μM pre-treatment 8 hr, then 10 μM Aβ(1-42) for 16 hr): 90%; tau detected after immunoprecipitation of DDB1 ([2]; 1 μM ± carfilzomib): co-IP with both total tau (TAU5) and P-tau (PHF-1); ubiquitinated proteins (Ubi-1) with the same migration as tau after DDB1 IP ([2]; 1 μM ± carfilzomib): increase in ubiquitinated proteins; CRBN detected after immunoprecipitation of tau (TAU5) [2]: co-IP with CRBN
